Experimental data: US6340678B1, “4,4-difluoro-2,3,4,5-tetrahydro-1H-1-benzoazepine derivatives and drug compositions containing them” (Yamanouchi Pharmaceutical Co., Ltd., priority 1997, dated 2002)
pKi: −log10 of the molar value. Positions of bridges follow the written chain, without caps; N, C: chain ends. Non-standard residues stand in square brackets, D forms with d. Residues, ends and D or L forms follow the SMILES beside them. Orn = NCCC[C@H](N)C(=O)O; Mpa = O=C(O)CCS

Target: T1, oxytocin receptor (Rattus norvegicus, UniProt P70536)
T1 construct: uterus was excised, and a membrane sample was prepared therefrom; from tissue; host or cells: rat uterus (membrane preparation after diethylstilbestrol dipropionate treatment)
T1 sequence (P70536 1-388): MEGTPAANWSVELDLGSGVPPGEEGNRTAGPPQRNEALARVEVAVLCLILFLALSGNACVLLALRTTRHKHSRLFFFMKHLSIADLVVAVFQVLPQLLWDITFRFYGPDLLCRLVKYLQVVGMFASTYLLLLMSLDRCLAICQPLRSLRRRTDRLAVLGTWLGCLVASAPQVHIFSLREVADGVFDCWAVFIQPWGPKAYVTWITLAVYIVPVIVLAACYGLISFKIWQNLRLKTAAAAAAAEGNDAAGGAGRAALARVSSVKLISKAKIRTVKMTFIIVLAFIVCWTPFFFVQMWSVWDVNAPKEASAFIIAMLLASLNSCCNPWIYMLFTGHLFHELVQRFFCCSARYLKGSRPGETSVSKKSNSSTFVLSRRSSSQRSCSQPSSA
Test: Oxytocin receptor binding assay ([3H]-oxytocin, rat uterine membrane sample)
Description: (Oxytocin Receptor Binding Assay)
Preparation of Uterine membrane was prepared by a method of Soroff, et al. (J. Biol. Chem., 249: 1376, 1974) while a binding assay was performed by a method of Pettibone, et al. (Endocrinology, 125: 217, 1989). Diethylstilbestrol dipropionate (0.3 mg/kg) was administered to a rat intraperitoneally, and after 18 to 24 hours, uterus was excised, and a membrane sample was prepared therefrom. [^3H]-Oxytocin (0.5 nM; specific activity=30 to 60 Ci/mmol), 50 μg of the membrane sample and a test drug (10^−8 to 10^−5 M) were incubated at room temperature for 60 minutes in 250 μl (total volume) of 50 mM Tris hydrochloride buffer (pH 7.4) containing 10 mM of magnesium chloride and 0.1% of bovine serum albumin (BSA). […] The glass filter was taken out, well dried and mixed with a cocktail for liquid scintillation, the amount of [^3H]-oxytocin bound to the sample was determined by a liquid scintillation counter, and the inhibition rate was calculated from the following equation: […]
wherein [L] is a concentration of the radioactive ligand; and Kd is a dissociation constant calculated from the scattered plots.
Then, a negative logarithmic value of Ki calculated hereinabove was taken as pKi. […]

## CCOc1ccc(C[C@H]2NC(=O)CCSSC[C@@H](C(=O)N3CCC[C@H]3C(=O)N[C@@H](CCCN)C(=O)NCC(N)=O)NC(=O)[C@H](CC(N)=O)NC(=O)[C@H]([C@@H](C)O)NC(=O)[C@H]([C@@H](C)CC)NC2=O)cc1 [atosiban] ([Mpa][dY](Et)ITNCP[Orn]G-NH2; disulfide 1-6)
  pKi: 7.93
